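Following 48 hours of exposure in 96-well plates, responses at five concentrations were used to interpolate endpoints linearly. TGI marks complete inhibition of growth.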
Tests used:
Test in all cases: DTP human tumour cell line panel, 48 h
DU-145 prostate = test system: DU-145 prostate
RXF 393 renal = test system: RXF 393 renal
SN12C renal = test system: SN12C renal
HL-60(TB) leukemia = test system: HL-60(TB) leukemia
HCC-2998 colon = test system: HCC-2998 colon
HT29 colon = test system: HT29 colon
SF-539 CNS = test system: SF-539 CNS
NCI/ADR-RES ovarian = test system: NCI/ADR-RES ovarian
EKVX NSCLC = test system: EKVX NSCLC
KM12 colon = test system: KM12 colon
SK-OV-3 ovarian = test system: SK-OV-3 ovarian
UACC-257 melanoma = test system: UACC-257 melanoma
A549 NSCLC = test system: A549 NSCLC
MALME-3M melanoma = test system: MALME-3M melanoma
UACC-62 melanoma = test system: UACC-62 melanoma
OVCAR-3 ovarian = test system: OVCAR-3 ovarian
MDA-MB-231 breast = test system: MDA-MB-231 breast
HCT-15 colon = test system: HCT-15 colon
ACHN renal = test system: ACHN renal
HOP-92 NSCLC = test system: HOP-92 NSCLC
MDA-N = test system: MDA-N
786-0 renal = test system: 786-0 renal
NCI-H460 lung = test system: NCI-H460 lung
SK-MEL-2 melanoma = test system: SK-MEL-2 melanoma
M14 melanoma = test system: M14 melanoma
T-47D breast = test system: T-47D breast
OVCAR-5 ovarian = test system: OVCAR-5 ovarian
SK-MEL-28 melanoma = test system: SK-MEL-28 melanoma
SF-268 CNS = test system: SF-268 CNS
NCI-H522 lung = test system: NCI-H522 lung
HOP-62 NSCLC = test system: HOP-62 NSCLC
SW-620 colon = test system: SW-620 colon
OVCAR-8 ovarian = test system: OVCAR-8 ovarian
IGROV1 ovarian = test system: IGROV1 ovarian
HCT-116 colon = test system: HCT-116 colon
RPMI-8226 leukemia = test system: RPMI-8226 leukemia
NCI-H226 lung = test system: NCI-H226 lung
MDA-MB-435 = test system: MDA-MB-435
SF-295 CNS = test system: SF-295 CNS
UO-31 renal = test system: UO-31 renal
PC-3 prostate = test system: PC-3 prostate
TK-10 renal = test system: TK-10 renal
SK-MEL-5 melanoma = test system: SK-MEL-5 melanoma
HS 578T breast = test system: HS 578T breast
OVCAR-4 ovarian = test system: OVCAR-4 ovarian
K-562 leukemia = test system: K-562 leukemia
U251 CNS = test system: U251 CNS
NCI-H23 lung = test system: NCI-H23 lung
MCF7 breast = test system: MCF7 breast
CAKI-1 renal = test system: CAKI-1 renal
SR leukemia = test system: SR leukemia
COLO 205 colon = test system: COLO 205 colon
SNB-19 CNS = test system: SNB-19 CNS
LOX IMVI melanoma = test system: LOX IMVI melanoma
MOLT-4 leukemia = test system: MOLT-4 leukemia
BT-549 breast = test system: BT-549 breast
A498 renal = test system: A498 renal
SNB-75 CNS = test system: SNB-75 CNS
CCRF-CEM leukemia = test system: CCRF-CEM leukemia

With `CCOC(=O)c1c2c(n3ccccc13)C(=O)c1ccccc1C2=O` the TGI (DU-145 prostate) was > 100 µM, the TGI (RXF 393 renal) was > 100 µM and the TGI (SN12C renal) was > 100 µM. The TGI (HL-60(TB) leukemia) was > 100 µM, the TGI (HCC-2998 colon) was 7.59 µM and the TGI (HT29 colon) was > 100 µM. The TGI (SF-539 CNS) was > 100 µM, the TGI (NCI/ADR-RES ovarian) was > 100 µM and the TGI (EKVX NSCLC) was > 100 µM. For the same compound, the TGI (KM12 colon) was > 100 µM, the TGI (SK-OV-3 ovarian) was > 100 µM and the TGI (UACC-257 melanoma) was > 100 µM. The TGI (A549 NSCLC) was 43.2 µM, the TGI (MALME-3M melanoma) was > 100 µM and the TGI (UACC-62 melanoma) was > 100 µM. For the same compound, the TGI (OVCAR-3 ovarian) was > 100 µM, the TGI (MDA-MB-231 breast) was > 100 µM and the TGI (HCT-15 colon) was > 100 µM. For the same compound, the TGI (ACHN renal) was > 100 µM, the TGI (HOP-92 NSCLC) was > 100 µM and the TGI (MDA-N) was > 100 µM. For the same compound, the TGI (786-0 renal) was > 100 µM, the TGI (NCI-H460 lung) was 15.6 µM and the TGI (SK-MEL-2 melanoma) was > 100 µM. The TGI (M14 melanoma) was > 100 µM, the TGI (T-47D breast) was > 100 µM and the TGI (OVCAR-5 ovarian) was > 100 µM. For the same compound, the TGI (SK-MEL-28 melanoma) was > 100 µM, the TGI (SF-268 CNS) was > 100 µM and the TGI (NCI-H522 lung) was > 100 µM. The TGI (HOP-62 NSCLC) was > 100 µM, the TGI (SW-620 colon) was > 100 µM and the TGI (OVCAR-8 ovarian) was > 100 µM. The TGI (IGROV1 ovarian) was > 100 µM, the TGI (HCT-116 colon) was > 100 µM and the TGI (RPMI-8226 leukemia) was > 100 µM. The TGI (NCI-H226 lung) was > 100 µM, the TGI (MDA-MB-435) was > 100 µM and the TGI (SF-295 CNS) was > 100 µM. The TGI (UO-31 renal) was > 100 µM, the TGI (PC-3 prostate) was > 100 µM and the TGI (TK-10 renal) was > 100 µM. The TGI (SK-MEL-5 melanoma) was > 100 µM, the TGI (HS 578T breast) was > 100 µM and the TGI (OVCAR-4 ovarian) was > 100 µM. The TGI (K-562 leukemia) was > 100 µM, the TGI (U251 CNS) was > 100 µM and the TGI (NCI-H23 lung) was > 100 µM. For the same compound, the TGI (MCF7 breast) was > 100 µM, the TGI (CAKI-1 renal) was > 100 µM and the TGI (SR leukemia) was > 100 µM. For the same compound, the TGI (COLO 205 colon) was > 100 µM, the TGI (SNB-19 CNS) was > 100 µM and the TGI (LOX IMVI melanoma) was > 100 µM. For the same compound, the TGI (MOLT-4 leukemia) was > 100 µM, the TGI (BT-549 breast) was > 100 µM and the TGI (A498 renal) was > 100 µM. The TGI (SNB-75 CNS) was 74.6 µM.
For `CS(=O)(=O)N1CC(CCl)c2ccc([N+](=O)[O-])cc21` (stereo unspecified), the TGI (DU-145 prostate) was > 100 µM, the TGI (RXF 393 renal) was > 100 µM and the TGI (SN12C renal) was > 100 µM. The TGI (HL-60(TB) leukemia) was > 100 µM, the TGI (HCC-2998 colon) was > 100 µM and the TGI (HT29 colon) was > 100 µM. For the same compound, the TGI (CCRF-CEM leukemia) was > 100 µM, the TGI (SF-539 CNS) was > 100 µM and the TGI (NCI/ADR-RES ovarian) was > 100 µM. The TGI (EKVX NSCLC) was > 100 µM, the TGI (KM12 colon) was > 100 µM and the TGI (SK-OV-3 ovarian) was > 100 µM. For the same compound, the TGI (UACC-257 melanoma) was > 100 µM, the TGI (A549 NSCLC) was > 100 µM and the TGI (MALME-3M melanoma) was > 100 µM. The TGI (UACC-62 melanoma) was > 100 µM, the TGI (OVCAR-3 ovarian) was > 100 µM and the TGI (MDA-MB-231 breast) was > 100 µM. For the same compound, the TGI (HCT-15 colon) was > 100 µM, the TGI (ACHN renal) was > 100 µM and the TGI (HOP-92 NSCLC) was > 100 µM. The TGI (MDA-N) was > 100 µM, the TGI (786-0 renal) was > 100 µM and the TGI (NCI-H460 lung) was > 100 µM. For the same compound, the TGI (SK-MEL-2 melanoma) was > 100 µM, the TGI (M14 melanoma) was > 100 µM and the TGI (T-47D breast) was > 100 µM. The TGI (OVCAR-5 ovarian) was > 100 µM, the TGI (SK-MEL-28 melanoma) was > 100 µM and the TGI (SF-268 CNS) was > 100 µM. For the same compound, the TGI (NCI-H522 lung) was > 100 µM, the TGI (HOP-62 NSCLC) was > 100 µM and the TGI (SW-620 colon) was > 100 µM. For the same compound, the TGI (OVCAR-8 ovarian) was > 100 µM, the TGI (IGROV1 ovarian) was > 100 µM and the TGI (HCT-116 colon) was > 100 µM. For the same compound, the TGI (RPMI-8226 leukemia) was > 100 µM, the TGI (NCI-H226 lung) was > 100 µM and the TGI (MDA-MB-435) was > 100 µM. For the same compound, the TGI (SF-295 CNS) was > 100 µM, the TGI (UO-31 renal) was > 100 µM and the TGI (PC-3 prostate) was > 100 µM. For the same compound, the TGI (TK-10 renal) was > 100 µM, the TGI (SK-MEL-5 melanoma) was > 100 µM and the TGI (HS 578T breast) was > 100 µM. For the same compound, the TGI (OVCAR-4 ovarian) was > 100 µM, the TGI (K-562 leukemia) was > 100 µM and the TGI (U251 CNS) was > 100 µM. The TGI (NCI-H23 lung) was > 100 µM, the TGI (MCF7 breast) was > 100 µM and the TGI (CAKI-1 renal) was > 100 µM. For the same compound, the TGI (SR leukemia) was > 100 µM, the TGI (COLO 205 colon) was > 100 µM and the TGI (SNB-19 CNS) was > 100 µM. For the same compound, the TGI (LOX IMVI melanoma) was > 100 µM, the TGI (MOLT-4 leukemia) was > 100 µM and the TGI (BT-549 breast) was > 100 µM. For the same compound, the TGI (A498 renal) was > 100 µM.

Reference: PubChem BioAssay (NCI)
